Here are results for 32 compounds from US6916923B2 (Hoffmann-La Roche Inc., priority 1999, dated 2005).

Test [1] addresses T1, Recombinant active human Cyclin E/CDK2 complexes (Homo sapiens, UniProt P24941).
T1 construct: made in house; host or cells: insect cells
The experiment in a line: CDK2 FlashPlate Assay (inhibition of Rb phosphorylation). In kind it is biochemical. Conditions: Cyclin E/CDK2, Rb substrate, 33P-ATP, 25 minutes at room temperature; read-out: Inhibition of Cdk2 - IC50 Range. The protocol:
To determine inhibition of CDK2 activity, purified recombinant retinoblastoma (Rb) protein was coated on 96 well FlashPlates (New England Nuclear, Boston, Mass.). Rb is a natural substrate for phosphorylation by CDK2 (Herwig and Strauss Eurr. J. Biochem., Vol. 246 (1997) pp. 581-601 and references therein). Recombinant active human Cyclin E/CDK2 complexes were partially purified from extracts of insect cells. The active Cyclin E/CDK2 was added to the Rb-coated FlashPlates along with ^33P-ATP and dilutions of test compounds. Plates were incubated for 25 minutes at room temperature with shaking, then washed and counted in the Topcount scintillation counter (Packard Instrument Co., Downers Grove, Ill.). Dilutions of test compounds were tested in duplicate in each assay. The percent inhibition of Rb phosphorylation, which is a measure of the inhibition of CDK2 activity, was determined according to the following formula: [formula] where “test compound” refers to the average counts per minute of the test duplicates, “nonspecific” refers to the average counts per minute when no Cyclin E/CDK2 was added, and “total” refers to the average counts per minute when no compound was added.

The test system of test [2] is estrogen receptor negative epithelial breast carcinoma line (MDA-MB-435). The experiment in a line: MDA-MB-435 cell-based antiproliferative (MTT) assay. To be noted: Homo sapiens, MDA-MB-435, 120 h, 2000 cells per well, 5 days post addition of test compound, read-out: Antiproliferative Activity of MDA-MB435 (breast) Assay - IC50 Range. The protocol:
(§1) The estrogen receptor negative epithelial breast carcinoma line (MDA-MB-435) was purchased from American Type Cell Culture Collection (ATCC; Rockville, Md.) and was grown in the medium recommended by ATCC. For analysis of the effect of the test compounds on growth of these cells, the cells were plated at 2000 cells per well in a 96-well tissue culture plate, and were incubated overnight at 37° C. with 5% CO2. The next day, the test compounds were dissolved in 100% dimethyl sulfoxide (DMSO) to yield a 10 mM stock solution. Each compound was diluted with sterile medium to 1 mM in a sufficient quantity to yield a final concentration of 120 μM. The compounds were then serially diluted in medium with 1.2% DMSO. One-fourth final volume of the diluted compounds was transferred to 96 well plates. Test compounds were assayed in duplicate. DMSO was added to a row of “control cells” such that the final concentration of DMSO in each well was 0.3%. Wells to which no cells were added served as the “blank.” Wells to which no inhibitor was added served as “no inhibitor control”. The plates were returned to the incubator, and 5 days post addition of test compound, were analyzed as described below.
(§2) 3-(4,5-Dimethylthiazole-2-yl)-2,5-diphenyl-2H-tetrazolium bromide (thiazolyl blue; MTT) was added to each well to yield a final concentration of 1 mg/mL. The plates were then incubated at 37° C. for 3 hours. The plates were centrifuged at 1000 rpm for 5 minutes prior to aspiration of the MTT-containing medium. The MTT-containing medium was then removed and 100 μL 100% ethanol was added to each well to dissolve the resulting formazan metabolite. To ensure complete dissolution, plates were shaken for 15 minutes at room temperature. Absorbencies were read in a microtiter plate reader (Molecular Dynamics) at a wavelength of 570 nm with a 650 nm reference. Percent inhibition was calculated by subtracting the absorbance of the blank (no cell) wells from all wells, then subtracting the division of the average absorbance of each test duplicate by the average of the controls from 1.00. Inhibitory concentrations (IC50) were determined from the linear regression of a plot of the logarithm of the concentration versus the percent inhibition.

In test [3] the test system is colon adenocarcinoma line SW480. Put plainly: SW480 cell-based antiproliferative (MTT) assay. To be noted: Homo sapiens, SW480, 144 h, 1000 cells per well, 6 days post addition of test compound, read-out: Antiproliferative Activity SW480 (colon) Assay - IC50 Range. The protocol: as §1, §2
The colon adenocarcinoma line SW480 and the colon carcinoma line HCT-116 also were obtained from the ATCC and were tested according to the same protocol provided above for MDA-MB435 cell based assay with the following modifications. Cell line SW480 was plated at 1000 cells per well and analyzed at 6 days post addition of the test compound. Cell line HCT-116 was plated at 1000 cells per well and analyzed at 4 days post addition of test compound.

For orientation: IC50 means the concentration needed to halve the response being measured.

`O=C(O)c1ccc2c(c1)C(c1ccccc1F)=Nc1c[nH]nc1N2` [Compound D22]: the IC50 in test [1] was in the range of 1 to 9.99 µM.
As to `O=[N+]([O-])c1ccc2c(c1)C(c1ccccc1Cl)=Nc1c(n[nH]c1-c1c[nH]cn1)N2` [Compound B14, 3-(4-imidazolyl)-5-(2-chlorophenyl)-7-nitro-pyrazolo[3,4][1,4]benzodiazepine], the results for the IC50 in test [1] and in test [2] were 0.01 to 0.99 µM and 1.1 to 9.99 µM, respectively.
Take `NC(=O)c1[nH]nc2c1N=C(c1ccccc1Cl)c1cc([N+](=O)[O-])ccc1N2` [Compound C10, 5-(2-chlorophenyl)-7-nitro-pyrazolo[3,4][1,4]benzodiazepine-3-carboxamide]: the results for the IC50 in test [1] and in test [2] were 0.01 to 0.99 µM and 10 to 30 µM, respectively.
Consider `Cc1[nH]nc2c1N=C(c1ccccc1F)c1cc(F)ccc1N2` [Compound B26, 3-methyl-5-(2-fluorophenyl)-7-fluoro-pyrazolo[3,4][1,4]benzodiazepine], for which the IC50 in test [1] was 0.01 to 0.99 µM; in test [3] it was 0.01 to 1 µM.
As to `O=[N+]([O-])c1ccc2c(c1)C(c1ccccc1Cl)=Nc1c(n[nH]c1-c1cc[nH]n1)N2` [Compound B15], the IC50 in test [1] was 0.01 to 0.99 µM; in test [2], 10 to 30 µM.
`Cc1ccc(-c2[nH]nc3c2N=C(c2ccccc2Cl)c2cc([N+](=O)[O-])ccc2N3)s1` [Compound D26]: in test [1], the IC50 fell in the range of 1 to 9.99 µM.
Consider `Cc1[nH]nc2c1N=C(c1ccccc1)c1cc([N+](=O)[O-])ccc1N2` [Compound B27, 3-methyl-5-phenyl-7-nitro-pyrazolo[3,4][1,4]benzodiazepine], for which the IC50 lay within 0.01 to 0.99 µM in test [1] and 0.01 to 1 µM in test [3].
With `Clc1ccc2c(c1)C(c1ccccc1)=Nc1c[nH]nc1N2` [Compound A6, 5-phenyl-7-chloro-pyrazolo[3,4][1,4]benzodiazepine], in test [1], the IC50 lay within 1 to 9.99 µM.
`C=Cc1[nH]nc2c1N=C(c1ccccc1Cl)c1cc([N+](=O)[O-])ccc1N2` [Compound C17, 3-ethenyl-5-(2-chlorophenyl)-7-nitro-pyrazolo[3,4][1,4]benzodiazepine]: the IC50 fell in the range of 0.01 to 0.99 µM in test [1] and 0.01 to 1 µM in test [2].
In the case of `CCC(C)c1[nH]nc2c1N=C(c1ccccc1Cl)c1cc([N+](=O)[O-])ccc1N2` (centres unmarked) [Compound B17, 3-(1-methylpropyl)-5-(2-chlorophenyl)-7-nitro-pyrazolo[3,4][1,4]benzodiazepine], the IC50 in test [1] lay in the range of 0.01 to 0.99 µM.
For the compound `O=[N+]([O-])c1ccc2c(c1)C(c1ccccc1Cl)=Nc1c(n[nH]c1C(F)(F)F)N2` [Compound B12, 3-trifluoromethyl-5-(2-chlorophenyl)-7-nitro-pyrazolo[3,4][1,4]benzodiazepine], the IC50 in test [1] was 0.01 to 0.99 µM; in test [2], 1.1 to 9.99 µM.
`Cc1[nH]nc2c1N=C(c1ccccc1F)c1cc(Cl)ccc1N2` [Compound B32, 3-methyl-5-(2-fluorophenyl)-7-chloro-pyrazolo[3,4][1,4]benzodiazepine]: the IC50 lay in the range of 0.01 to 0.99 µM in test [1] and 1.1 to 9.99 µM in test [3].
With `CCOC(=O)c1ccc2c(c1)C(c1ccccc1F)=Nc1c[nH]nc1N2` [Compound A20, 5-(2-fluorophenyl)-7-carboethoxy-pyrazolo[3,4][1,4]benzodiazepine], in test [1], the IC50 was in the range of 0.01 to 0.99 µM.
Still for that read-out and setting: next, `CN(C)C(=O)c1[nH]nc2c1N=C(c1ccccc1Cl)c1cc([N+](=O)[O-])ccc1N2` [Compound C11, N,N-dimethyl-5-(2-chlorophenyl)-7-nitro-pyrazolo[3,4][1,4]benzodiazepine-3-carboxamide]: 1 to 9.99 µM.
On the same count and under the same terms, the same measure for `CN(C)c1ccc(-c2[nH]nc3c2N=C(c2ccccc2Cl)c2cc([N+](=O)[O-])ccc2N3)cc1` [Compound D28]: 1 to 9.99 µM; for `Cn1cccc1-c1[nH]nc2c1N=C(c1ccccc1Cl)c1cc([N+](=O)[O-])ccc1N2` [Compound D21]: 1 to 9.99 µM; for `Clc1ccc2c(c1)C(c1ccccc1Cl)=Nc1c[nH]nc1N2` [Compound A4, 5-(2-chlorophenyl)-7-chloro-pyrazolo[3,4][1,4]benzodiazepine]: 10 to 30 µM.
As to `O=[N+]([O-])c1ccc2c(c1)C(c1ccccc1Cl)=Nc1c(n[nH]c1-c1ccccc1[N+](=O)[O-])N2` [Compound D39], the IC50 in test [1] lay in the range of 10 to 30 µM.
Still for that read-out and setting: the same measure for `Fc1ccccc1C1=Nc2c[nH]nc2Nc2ccc(I)cc21` [Compound A19, 5-(2-fluorophenyl)-7-iodo-pyrazolo[3,4][1,4]benzodiazepine]: 1 to 9.99 µM; for `Cc1ccc(-c2[nH]nc3c2N=C(c2ccccc2Cl)c2cc([N+](=O)[O-])ccc2N3)cc1` [Compound D24]: 1 to 9.99 µM.
Consider `Cc1[nH]nc2c1N=C(c1ccccc1F)c1cc(C(N)=O)ccc1N2` [Compound C19, 3-methyl-5-(2-fluorophenyl)-pyrazolo[3,4][1,4]benzodiazepine-7-carboxamide], for which the half-inhibitory concentration (IC50) was 0.01 to 0.99 µM in test [1] and 0.01 to 1 µM in test [3].
Consider `O=[N+]([O-])c1ccc2c(c1)C(c1ccccc1Cl)=Nc1c(n[nH]c1-c1nccs1)N2` [Compound B13, 3-(1-thiazolyl)-5-(2-chlorophenyl)-7-nitro-pyrazolo[3,4][1,4]benzodiazepine], for which, in test [1], the IC50 was in the range of 0.01 to 0.99 µM.
`Fc1ccc2c(c1)C(c1ccccc1F)=Nc1c[nH]nc1N2` [Compound A11, 5-(2-fluorophenyl)-7-fluoro-pyrazolo[3,4][1,4]benzodiazepine]: the IC50 in test [1] lay within 1 to 9.99 µM; in test [3] it was 10 to 30 µM.
In the case of `Fc1ccccc1C1=Nc2c[nH]nc2Nc2ccc(Cl)cc21` [Compound A7, 5-(2-fluorophenyl)-7-chloro-pyrazolo[3,4][1,4]benzodiazepine], in test [1], the IC50 was in the range of 1 to 9.99 µM.
As for `Cc1[nH]nc2c1N=C(c1ccccc1C(F)(F)F)c1cc([N+](=O)[O-])ccc1N2` [Compound D2], the IC50 was 0.01 to 0.99 µM in test [1] and 0.01 to 1 µM in test [3].
As for `O=[N+]([O-])c1ccc2c(c1)C(c1ccccc1C(F)(F)F)=Nc1c[nH]nc1N2` [Compound A17, 5-(2-trifluoromethylphenyl)-7-nitro-pyrazolo[3,4][1,4]benzodiazepine], the IC50 in test [1] lay within 0.01 to 0.99 µM.
With `O=[N+]([O-])c1ccc2c(c1)C(c1ccccc1)=Nc1c(n[nH]c1-c1ncc[nH]1)N2` [Compound D34], the IC50 in test [1] lay in the range of 1 to 9.99 µM.
For the compound `Cc1[nH]nc2c1N=C(c1ccccc1)c1cc(I)ccc1N2` [Compound B33, 3-methyl-5-phenyl-7-iodo-pyrazolo[3,4][1,4]benzodiazepine], the IC50 in test [1] lay within 1 to 9.99 µM; in test [3] it was 10 to 30 µM.
As to `Cc1[nH]nc2c1N=C(c1ccccc1)c1ccccc1N2` [Compound B28, 3-methyl-5-phenyl-pyrazolo[3,4][1,4]benzodiazepine], in test [1], the IC50 was 0.01 to 0.99 µM.
In the case of `COC(=O)c1ccc2c(c1)C(c1ccccc1)=Nc1c[nH]nc1N2` [Compound A18, 5-phenyl-7-carbomethoxy-pyrazolo[3,4][1,4]benzodiazepine], the IC50 in test [1] lay in the range of 1 to 9.99 µM.
On the same count and under the same terms, the same measure for `O=C(c1ccc2c(c1)C(c1ccccc1F)=Nc1c[nH]nc1N2)N(CCO)CCO` [Compound C3, N,N-bis-(2-hydroxyethyl)-5-(2-fluorophenyl)-pyrazolo[3,4][1,4]benzodiazepine-7-carboxamide]: 1 to 9.99 µM; for `CC(C)Cc1[nH]nc2c1N=C(c1ccccc1Cl)c1cc([N+](=O)[O-])ccc1N2` [Compound B11, 3-(2-methylpropyl)-5-(2-chlorophenyl)-7-nitro-pyrazolo[3,4][1,4]benzodiazepine]: 1 to 9.99 µM.
